Legend:
[1] = tested on: four isogenic LN229 glioblastoma cell lines (MGMT+/−, MMR+/−); assay type: cell-based; details: LN229 MGMT+ versus MGMT− cells; listed as 12a
Description: (§1) Short-term Cell Viability Assay. Cells were seeded in 96-well plates at 1000 or 2000 cells/well and allowed to adhere at 23° C. for 60 min and then incubated overnight at 37° C. Cells were treated with indicated concentrations of compounds in triplicate for 4-6 days prior to fixation with 3.7% paraformaldehyde and nuclear staining with 1 μg/mL Hoechst 33342 dye. Cells were imaged on a Cytation 3 imaging reader (BioTek) and quantified using CellProfiler software.
Statistical analysis. Statistical analysis was performed using GraphPad Prism software. Data are presented as mean or median±SD or SEM as indicated. For in vitro short-term growth delay experiments, IC50 values were determined from the nonlinear regression equation, [inhibitor] vs normalized response with variable slope. For micronuclei assays, comparisons were made with one-way ANOVA and Sidak correction for multiple comparisons. For xenograft growth delay experiments, comparisons were made with Mann-Whitney test (for comparison of 2 groups) or Kruskal-Wallis test with FDR-adjusted p-values with Q set to 5% (for comparison of ≥3 groups). For xenograft survival analysis, Kaplan-Meier analysis was used to evaluate survival rate based on death or removal from study when body weight loss exceeded 20% of initial body weight
We synthesized the imidazotetrazine 4a (KL-50) and the triazene 4b (KL-85), as vehicles to deliver 2-fluoroethyl diazonium (4c), and a series of related agents to probe structure-activity relationships in tissue culture (FIG. Z1, D and F). The 2-fluoropropyl- and 3-fluoropropyl-triazenes (10 and 11, respectively) were prepared by diazotization of 4-aminoimdazole-5-carboxamide, followed by the addition of the respective amine. All other triazenes were prepared according to literature procedures. We evaluated the cytotoxicity of our compounds in short-term cell viability assays against four isogenic LN229 glioblastoma cell lines engineered to be proficient or deficient in MGMT and/or MMR activity, using short hairpin RNAs (shRNAs) targeting MSH2 (referred to as MGMT+/−, MMR+/− cells hereafter; FIG. ZS2A). This approach allowed us to rapidly and rigorously interrogate the relationship between MGMT and MMR status and compound activity.
The compounds 10a through 10l and TMZ were tested in the short-term cell viability assay.

[2] = tested on: LN229 MGMT−/MMR+ and MGMT−/MMR− cells; test: IR alkaline comet assay; assay type: cell-based, human
Description: IR Alkaline Comet Assay. Assay was performed utilizing the CometAssay Kit (Trevigen) according to the alkaline assay protocol, with the addition of slide irradiation post-lysis. Cells were trypsinized, washed with 1×PBS, added to melted Comet LMAgarose (Trevigen), and spread on Trevigen CometSlides at a density of 1000 cells per sample in 50 μL. Lysis solution (Trevigen) with 10% DMSO was added overnight at 4° C. Slides were removed from lysis buffer and irradiated to 0 or 10 Gy using an XRAD 320 X-Ray System (Precision X-Ray) at 320 kV, 12.5 mA, and 50.0 cm SSD, with a 2 mm Al filter and 20 cm×20 cm collimator. Slides were then placed in alkaline buffer (200 mM NaOH, 1 mM EDTA) for 45 min, followed by electrophoresis in 850 mL alkaline buffer for 45 min at 4° C. Slides were washed and stained with SYBR gold (Invitrogen) per Trevigen assay protocol. Slides were imaged on a Cytation 3 imaging reader (BioTek), and comets were analyzed using CometScore 2.0 software (TriTek).
We used a well-established comet assay adapted for ICL detection to determine if ICLs were formed in MGMT− cells treated with KL-50 (4a) (FIG. Z3, A and B). In this assay, cells were sequentially exposed to genotoxins and ionizing radiation, and then analyzed by single cell alkaline gel electrophoresis. Attenuation of the IR-induced comet tail is indicative of ICL formation.

[3] = tested on: linearized pUC19 plasmid DNA; test: Melting temperature assay; assay type: biochemical; details: 100 or 500 μM for 3 h
Description: Melting Temperature Assay. Linearized pUC19 DNA (750 ng), prepared as described above, was incubated with the indicated concentration of either MMS or KL-50 (4a) adjusted in a final volume of 18 μL in 100 mM Tris buffer (pH 7.4) for 3 h. Drug stock concentrations were made in DMSO such that each reaction contained a fixed 5% DMSO concentration. Afterwards, 1 μL each of 20× SYBR Green dye (Invitrogen) and 20× ROX reference dye (Invitrogen) was added and melting temperature analysis was run on a StepOnePlus RT PCR System (Applied Biosciences) to generate melting temperature curves.

[4] = tested on: LN229 MGMT+/−, MMR+/− cells; test: Clonogenic cell survival assay; details: cell status given in the value
Description: Cells were trypsinized, washed, counted, and diluted in a medium containing various concentrations of drug. They were then immediately seeded in six-well plates in triplicate at three-fold dilutions, ranging from 9000 to 37 cells per well. Depending on colony size, these plates were kept in the incubator for 10 to 14 days. After incubation, colonies were washed in phosphate-buffered saline (PBS), stained with crystal violet, counted, and quantified.

[5] = tested on: PD20 cells, FANCD2−/− or +FANCD2; test: Short-term cell viability assay in FANCD2 model; assay type: cell-based, human; details: PD20 FANCD2−/− versus +FANCD2
Description: (§2) FIGS. Z4A-Z4I. KL-50 (4a) activates DNA damage response pathways and cycle arrest in MGMT− cells, independent of MMR, and induces sensitivity in cells deficient in ICL or HR repair. (FIGS. Z4A, Z4B, and Z4C) Phospho-SER139-H2AX (γH2AX) (A), 53BP1 (FIG. Z4B), and phospo-SER33-RPA2 (pRPA) (FIG. Z4C) foci formation quantified by % cells with 10 foci in LN229 MGMT+/−, MMR+/− cells treated with 0.1% DMSO control, 20 μM KL-50 (4a), or 20 μM TMZ (1a) for 48 h. Columns, mean; error bars, SD; n≥5 technical replicates. Additional time course data is presented in FIG. ZS6B to D. (FIG. Z4D) Representative foci images of data in (FIG. Z4A) to (FIG. Z4C). (FIG. Z4E) Percentage of cells in G1, S, and G2 cell cycle phases after treatment as in (A) to (C), measured using integrated nuclear (Hoechst) staining intensity. Columns, mean; error bars, SD; n=3 independent analyses. (FIG. Z4F) Change in percent cells with 1 micronuclei from baseline (DMSO control) after treatment as in (FIG. Z4A) to (FIG. Z4C). Columns, mean; error bars, SD; […] technical replicates; **** p<0.0001; ns, not significant. Additional validation is presented in FIG. ZS9, A and B. (FIG. Z4G) Short-term viability assay curves for KL-50 (4a) in PD20 cells, deficient in FANCD2 (FANCD2−/−) or complemented with FANCD2 (+FANCD2). (FIG. Z4H) Short-term viability assay curves for KL-50 (4a) in PEO4 (BRCA2+) and PEO1 (BRCA2−/−) cells pre-treated with 0.01% DMSO control or 10 μM O^6BG (+O^6BG) for 1 h prior to KL-50 (4a) addition. (FIG. Z4I) Short-term viability assay curves for KL-50 (4a) in DLD1 BRCA2+/− and BRCA2−/− cells pre-treated with 0.01% DMSO control or 10 μM O^6BG (+O^6BG) for 1 h prior to KL-50 (4a) addition. For (FIG. Z4G), (FIG. Z4H), and (FIG. Z4I), points, mean; error bars, SD; n=3 technical replicates.
Short-term Cell Viability Assay. Cells were seeded in 96-well plates at 1000 or 2000 cells/well and allowed to adhere at 23° C. for 60 min and then incubated overnight at 37° C. […] Cells were imaged on a Cytation 3 imaging reader (BioTek) and quantified using CellProfiler software.

[6] = tested on: PEO4 (BRCA2+) and PEO1 (BRCA2−/−) cells; test: Short-term cell viability assay in PEO1/4 model; assay type: cell-based, human; details: for therapeutic index (TI): PEO1/4 model, ratio of IC50 values; for sensitivity of BRCA2-deficient cells (in words): PEO1 versus PEO4, ± 10 μM O^6BG
Description: as §2, §1

[7] = tested on: DLD1 BRCA2+/− and BRCA2−/− cells; test: Short-term cell viability assay in DLD1 isogenic model; assay type: cell-based, human; details: for sensitivity of BRCA2-deficient cells (in words): DLD1 BRCA2−/− versus BRCA2+/−, ± 10 μM O^6BG; for therapeutic index (TI): ratio of IC50 values in MGMT+/BRCA2+ cells compared to MGMT−/BRCA2− cells
Description: as §2, §1

LN229 MGMT−/MMR− cells = test: Short-term cell viability assay; assay type: cell-based, human
Description: as §1
Statistical analysis. Statistical analysis was performed using GraphPad Prism software. Data are presented as mean or median±SD or SEM as indicated. For in vitro short-term growth delay experiments, IC50 values were determined from the nonlinear regression equation, [inhibitor] vs normalized response with variable slope. […]
We synthesized the imidazotetrazine 4a (KL-50) and the triazene 4b (KL-85), as vehicles to deliver 2-fluoroethyl diazonium (4c), and a series of related agents to probe structure-activity relationships in tissue culture (FIG. Z1, D and F). […] We evaluated the cytotoxicity of our compounds in short-term cell viability assays against four isogenic LN229 glioblastoma cell lines engineered to be proficient or deficient in MGMT and/or MMR activity, using short hairpin RNAs (shRNAs) targeting MSH2 (referred to as MGMT+/−, MMR+/− cells hereafter; FIG. ZS2A). […]

[8] = tested on: genomic DNA of LN229 MGMT−/MMR+ cells; test: Genomic DNA denaturing gel electrophoresis; assay type: cell-based, human; details: 200 μM, 24 h
Description: Genomic DNA Denaturing Gel Electrophoresis. Cells were trypsinized, washed with 1×PBS, and stored at −80° C. prior to processing. Genomic DNA was extracted with the DNeasy Blood & Tissue Kit (Qiagen) per kit protocol. A 0.7% agarose gel was prepared in 100 mM NaCl-2 mM EDTA (pH 8) and soaked in 40 mM NaOH-1 mM EDTA running buffer for 2 h. Genomic DNA (400 ng/well) was then loaded in 1× BlueJuice loading buffer (Invitrogen) and subjected to electrophoresis at 2 V/cm for 30 min, followed by 3 V/cm for 2 h. The gel was neutralized in 150 mM NaCl-100 mM Tris (pH 7.4) for 30 min, twice, and then stained with 1× SYBR Gold in 150 mM NaCl-100 mM Tris (pH 7.4) for 90 min. Imaging was performed on a ChemiDoc XRS+ Molecular Imager (Bio-Rad).

`NC(=O)c1ncn2c(=O)n(CCCl)nnc12` [MTZ, mitozolomide] was tested, and the “selectivity for MGMT-deficient cells” value [1] was ~7 fold, the “DNA damage in unirradiated samples (in words)” value ([2]; MGMT−/MMR− cells, 200 μM, 2, 8 or 24 h, 0 Gy) was “induced maximal damage at 2 h, which decreased over time” and the “rate of ICL formation, DNA mobility after IR (in words)” value ([2]; MGMT−/MMR− cells, 200 μM, 2, 8 or 24 h, 10 Gy) was “reduced DNA mobility within 2 h”.

For `COS(C)(=O)=O` [MMS, Methylmethane sulfonate, reference compound], the “change in DNA melting temperature (in words)” value [3] was “comparable changes in measured DNA melting temperature”.

For `O=NN(CCCl)C(=O)NC1CCCCC1` [lomustine], the “clonogenic survival (in words)” value [4] was “effective in MMR− cells but was cytotoxic to MGMT+ cells”.

With `CO[C@@]12[C@H](COC(N)=O)C3=C(C(=O)C(C)=C(N)C3=O)N1C[C@@H]1N[C@@H]12` [MMC, mitomycin C] the “effect on IR-induced comet tail, ICL detection (in words)” value (“effect on IR-induced comet tail” below) ([2]; MGMT−/MMR+ cells, 0.1 μM for 24 h, 10 Gy) was “partial reduction in the IR-induced comet tail”, the “effect on IR-induced comet tail” value ([2]; MGMT−/MMR+ cells, 50 μM for 2 h, 10 Gy) was “completely abolished the IR-induced comet tail” and the “comet tailing in the absence of IR (in words)” value ([2]; MGMT−/MMR+ cells, TMZ and KL-50 200 μM, MMC 0.1 or 50 μM) was “did not”. The “sensitivity of FANCD2-deficient cells (in words)” value [5] was “hypersensitivity to crosslinking agents in FANCD2−/− cells”, the “therapeutic index (TI)” value [6] was 7 fold and the “sensitivity of BRCA2-deficient cells (in words)” value [6] was “hypersensitivity of PEO4 BRCA2−/− cells to crosslinking agents independent of MGMT depletion”. For the same compound, the “sensitivity of BRCA2-deficient cells (in words)” value [7] was “hypersensitivity of DLD1 BRCA2−/− cells to crosslinking agents independent of MGMT depletion” and the “therapeutic index (TI)” value [7] was 26 fold.

In the case of `N.N.[Cl][Pt][Cl]` [cisplatin], the “sensitivity of FANCD2-deficient cells (in words)” value [5] is reported as “hypersensitivity to crosslinking agents in FANCD2−/− cells”, the “therapeutic index (TI)” value [6] is reported as 13 fold and the “sensitivity of BRCA2-deficient cells (in words)” value [6] is reported as “hypersensitivity of PEO4 BRCA2−/− cells to crosslinking agents independent of MGMT depletion”. The “sensitivity of BRCA2-deficient cells (in words)” value [7] was “hypersensitivity of DLD1 BRCA2−/− cells to crosslinking agents independent of MGMT depletion” and the “therapeutic index (TI)” value [7] was 42 fold.

`NC(=O)c1nc[nH]c1N=NNCCF` [KL-85] was tested, and the IC50 (LN229 MGMT−/MMR− cells) was 27.5 µM, the “effect on IR-induced comet tail” value ([2]; MGMT−/MMR+ cells, 200 μM for 24 h, 10 Gy) was “Comparable results” and the “crosslinked genomic DNA (in words)” value [8] was “presence of crosslinked DNA”.
